# Measurements taken from ChEMBL document CHEMBL1201862, “PubChem BioAssay data set” (2004).
#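 Growth conditions: 96-well plates. Treatment: test compound, 48 hours, 5 concentrations. Analysis: linear interpolation between bracketing concentrations; unreached endpoints set to highest concentration. Here, GI50 denotes the concentration required for 50% inhibition of growth.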 Active and inactive are the calls of the source. Rule as the data show it: active = GI50 up to about 1.1 µM and inactive = higher.
# What was measured:
# Assay in all cases: NCI-60 cell line screen, 48 h
# A549 = test system: A549
# HCC 2998 = test system: HCC 2998
# HT-29 = test system: HT-29
# XF498 = test system: XF498
# DMS-114 = test system: DMS-114
# Malme-3M = test system: Malme-3M
# HOP-62 = test system: HOP-62
# SK-MEL-5 = test system: SK-MEL-5
# SK-MEL-2 = test system: SK-MEL-2
# HOP-18 = test system: HOP-18
# ACHN = test system: ACHN
# M19-MEL = test system: M19-MEL
# MCF7 = test system: MCF7
# PC-3 = test system: PC-3
# MDA-MB-231 = test system: MDA-MB-231
# T47D = test system: T47D
# 786-0 = test system: 786-0
# BT-549 = test system: BT-549
# MDA-MB-435 = test system: MDA-MB-435
# DU-145 = test system: DU-145
SMILES,GI50 (A549),GI50 (HCC 2998),GI50 (HT-29),GI50 (XF498),GI50 (DMS-114),GI50 (Malme-3M),GI50 (HOP-62),GI50 (SK-MEL-5),GI50 (SK-MEL-2),GI50 (HOP-18),GI50 (ACHN),GI50 (M19-MEL),GI50 (MCF7),GI50 (PC-3),GI50 (MDA-MB-231),GI50 (T47D),GI50 (786-0),GI50 (BT-549),GI50 (MDA-MB-435),GI50 (DU-145)
CCOC(=O)C(=O)NC12CC3CC(CC(C3)C1)C2,> 100 µM (inactive),> 100 µM (inactive),> 100 µM (inactive),> 100 µM (inactive),> 100 µM (inactive),> 100 µM (inactive),> 100 µM (inactive),> 100 µM (inactive),> 100 µM (inactive),> 100 µM (inactive),> 100 µM (inactive),,,,,,,,,
O=C(OCc1ccccc1)OOC(=O)OCc1ccccc1,> 100 µM (inactive),> 100 µM (inactive),> 100 µM (inactive),,> 100 µM (inactive),> 100 µM (inactive),> 100 µM (inactive),> 100 µM (inactive),> 100 µM (inactive),,> 100 µM (inactive),> 100 µM (inactive),,,,,,,,
COC(=O)C1C(O)C(C)C(O)C(C)(O)/C=C\C=C(C)C(=O)Nc2c(C)c(OC(C)=O)c3c(c2O)C(=O)C(C)=C2OCOC(=C23)C(C)=CC(C)(O)C(O)C(C)C1OC(C)=O (stereo not drawn),> 100 µM (inactive),34.4 µM (inactive),45.4 µM (inactive),,16.1 µM (inactive),28.9 µM (inactive),> 86.3 µM (inactive),30.3 µM (inactive),19.6 µM (inactive),93.1 µM (inactive),,17.3 µM (inactive),18 µM (inactive),,,,,,,
CC[C@H]1CN2CCc3cc(OC)c(OC)cc3[C@@H]2C[C@@H]1C[C@H]1NCCc2cc(O)c(OC)cc21,0.025 µM (active),0.0261 µM (active),0.0319 µM (active),,0.025 µM (active),0.0809 µM (active),,0.0592 µM (active),0.0319 µM (active),,,0.0253 µM (active),0.025 µM (active),,,,,,,
COC(=O)C(Cc1ccc(N(C)C)cc1)(NC(=O)c1ccccc1)P(=O)(OC)OC (stereo not drawn),> 100 µM (inactive),> 100 µM (inactive),> 100 µM (inactive),> 100 µM (inactive),> 100 µM (inactive),,> 100 µM (inactive),> 100 µM (inactive),> 100 µM (inactive),,> 100 µM (inactive),> 100 µM (inactive),,,,,,,,
N/N=C(\C(=O)Nc1c(Cl)cc([N+](=O)[O-])cc1Cl)C(c1cnc2ccc([N+](=O)[O-])cc2n1)[N+](=O)[O-] (stereo not drawn),> 100 µM (inactive),82.2 µM (inactive),> 100 µM (inactive),> 100 µM (inactive),36.3 µM (inactive),,> 100 µM (inactive),> 100 µM (inactive),> 100 µM (inactive),,> 100 µM (inactive),> 100 µM (inactive),,,,,,,,
O=C1C=C/C(=C/[C@H]2SSC=C[C@]23C=CC(=O)C3)C1,22.8 µM (inactive),20.6 µM (inactive),11 µM (inactive),,,16.9 µM (inactive),27.9 µM (inactive),16.9 µM (inactive),20 µM (inactive),,18.1 µM (inactive),,5.79 µM (inactive),24.7 µM (inactive),28.1 µM (inactive),36.1 µM (inactive),7.55 µM (inactive),18.9 µM (inactive),17.7 µM (inactive),20.2 µM (inactive)
COc1cccc(N2C(=O)CSC2c2cccc(Oc3ccccc3)c2)c1 (stereo not drawn),9.53 µM (inactive),3.14 µM (inactive),4.28 µM (inactive),,,9.02 µM (inactive),9.38 µM (inactive),4.36 µM (inactive),4.28 µM (inactive),,6.17 µM (inactive),,2.48 µM (inactive),5.3 µM (inactive),7.78 µM (inactive),9.04 µM (inactive),6.47 µM (inactive),12.3 µM (inactive),2.81 µM (inactive),20.4 µM (inactive)
